Patent publication US5569598A (Lucky Limited Co., priority 1993, dated 1996)
Residues, ends and D or L forms follow the SMILES beside them. *: point of attachment. pNA = O=[N+]([O-])c1ccc(N*)cc1

Experiments:
[1] = test system: aminopeptidase; experiment: Substrate specificity of the aminopeptidase (paranitroanilide substrates); assay type: biochemical, Streptomyces thermonitrificans; details: substrate 10 mM, 1 unit aminopeptidase, 100 mM Tris buffer pH 8.0, 37° C.; activity to leucine-paranitroanilide as 100%
Source text: (§1) Enzymol., 19, 514-521(1970).
The substrate specificity of the aminopeptidase was examined as follows. […] The reaction time was regulated in accordance with the substrate so that paranitroanilide is produced in a fixed rate.

[2] = test system: aminopeptidase; experiment: Effect of orthophenanthroline on the enzyme activity; assay type: biochemical, Streptomyces thermonitrificans; details: 37° C., 1 minute, 0 mM = 100
Source text: as §1

[3] = WHO-supplied reference, literature value; cited from earlier work

Molecule	Activity(%) of the aminopeptidase according to the substrate [1] [%]	further results
NCC(=O)N[C@@H](Cc1ccccc1)C(=O)Nc1ccc([N+](=O)[O-])cc1 [glycine-phenylalanine-paranitroanilide] (H-Gly-Phe-pNA)	0.11	
NCC(=O)Nc1ccc([N+](=O)[O-])cc1 [glycine-paranitroanilide]	0.04	
NCCCC[C@H](N)C(=O)Nc1ccc([N+](=O)[O-])cc1 [lysine-paranitroanilide]	0.03	
NCC(=O)N1CCC[C@H]1C(=O)Nc1ccc([N+](=O)[O-])cc1 [glycine-proline-paranitroanilide] (H-Gly-Pro-pNA)	0.80	
C[C@H](N)C(=O)Nc1ccc([N+](=O)[O-])cc1 [alanine-paranitroanilide]	0.60	
CSCC[C@H](N)C(=O)Nc1ccc([N+](=O)[O-])cc1 [methionine-paranitroanilide]	3.60	
c1cnc2c(c1)ccc1cccnc12 [orthophenanthroline]		Activity(%) ([2]; orthophenanthroline 1 mM): 27%; Activity(%) ([2]; orthophenanthroline 5 mM): 2%
CC(C)C[C@H](N)C(=O)Nc1ccc([N+](=O)[O-])cc1 [leucine-paranitroanilide]	100	
pituitary gland-derivedhuman growth hormone: pituitary gland-derived human growth hormone supplied by World Health Organization		potency [3]: 2.5 IU/mg
